This is an account of results in patent US20260124222A1, “ISOTHIAZOLYLCARBOXAMIDE COMPOUNDS AND THEIR USE IN THERAPY” (HOTSPOT THERAPEUTICS, INC., priority 2022, published 2026).

The target of this assay is T1, Avi-tagged FL MALT-1 (Homo sapiens, UniProt Q9UDY8).
T1 construct: Avi-tagged FL MALT-1 (Pharmaron, stored at −70° C.); Avi-tag; purchased Pharmaron
T1 sequence (Q9UDY8 1-824): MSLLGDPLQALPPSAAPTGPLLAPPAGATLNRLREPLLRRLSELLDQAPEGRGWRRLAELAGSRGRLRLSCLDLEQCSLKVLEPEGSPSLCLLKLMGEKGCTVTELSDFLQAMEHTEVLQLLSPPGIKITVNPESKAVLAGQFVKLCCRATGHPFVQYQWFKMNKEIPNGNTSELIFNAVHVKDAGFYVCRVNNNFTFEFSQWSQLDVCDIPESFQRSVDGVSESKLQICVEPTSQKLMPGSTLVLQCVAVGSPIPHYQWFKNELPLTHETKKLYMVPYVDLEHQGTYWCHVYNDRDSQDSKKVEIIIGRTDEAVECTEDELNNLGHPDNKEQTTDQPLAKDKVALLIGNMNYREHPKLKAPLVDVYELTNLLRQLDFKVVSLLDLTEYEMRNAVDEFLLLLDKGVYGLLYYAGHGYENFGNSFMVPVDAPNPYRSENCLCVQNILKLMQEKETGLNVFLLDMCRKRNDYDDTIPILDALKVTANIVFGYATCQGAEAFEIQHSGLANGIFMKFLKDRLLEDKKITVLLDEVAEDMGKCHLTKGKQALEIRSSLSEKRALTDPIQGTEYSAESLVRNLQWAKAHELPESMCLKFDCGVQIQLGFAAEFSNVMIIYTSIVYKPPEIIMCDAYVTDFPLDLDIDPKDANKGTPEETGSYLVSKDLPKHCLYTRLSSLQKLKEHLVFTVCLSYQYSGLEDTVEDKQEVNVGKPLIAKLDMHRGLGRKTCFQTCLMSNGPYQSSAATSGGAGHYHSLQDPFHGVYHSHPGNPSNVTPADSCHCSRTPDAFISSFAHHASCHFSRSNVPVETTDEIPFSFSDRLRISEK
Briefly: MALT-1 Fluorogenic Peptide Cleavage Assay (MALT1 inhibition assay). In kind it is biochemical. The following applies: Ac-LRSR-AMC peptide substrate; 30 min pre-incubation, 90 min reaction at room temperature; fluorescence. On the procedure: Inhibition of MALT1 activity by a small molecule was evaluated using MALT-1 Fluorogenic Peptide Cleavage Assay. The assay utilizes a quenched AMC-labelled peptide that contains the MALT-1 recognition sequence and cleavage site (LRSR). MALT-1 mediated cleavage of the peptide relieves the quenching and leads to an increase in fluorescence at excitation (342 nm) and emission (441 nm).
The following reagents were obtained commercially and used to prepare standard reagent formulations as further described below: N-2-hydroxyethylpiperazine-N-2-ethane sulfonic acid (HEPES) (1 M, pH 7.5, stored at 4° C.), sodium citrate (stored at RT), tris(2-carboxyethyl)phosphine hydrochloride (T-CEP) (500 mM, stored at −20° C.), ethylenediaminetetraacetic acid (EDTA) (500 mM, stored at RT), dimethylsulfoxide (DMSO, stored at RT), 3-[(3-cholamidopropyl)dimethylammonio]-1-propane sulphate (CHAPS) (stored at RT), dimethylsulfoxide (DMSO), DMSO (Fisher Scientific, stored at RT), Avi-tagged FL MALT-1 (Pharmaron, stored at −70° C.), Ac-LRSR-AMC Peptide (SM Biochemicals, stored at −20° C.), and ultrapure water (MILLI-Q®).
The standard reagent formulations used in this assay were prepared and stored as follows. A 1.1 M solution of sodium citrate (161.3 g, 500 mL) was prepared and stored at room temperature. A 10% (w/v) CHAPS solution (2.0 g, 20 mL) was prepared and stored at 4° C. A 500 mM HEPES solution having pH of 6.89 was prepared from 200 mL of a 1 M HEPES solution having a pH of 7.5 using concentrated hydrochloric acid and brought to a final volume of 400 mL with MILLI-Q© H2O. The substrate, 10 mM Ac-LRSR-AMC Peptide, was prepared (10 mg, 1.370 mL DMSO) and stored at −20° C.
Compounds were plated to provide a 2% DMSO final concentration using a ProxiPlate-384 Plus F Black 384-shallow well microplate. The assay-ready plates were equilibrated to room temperature. A reaction buffer (30 mL total volume) was prepared by combining HEPES (pH 6.89, 25 mM, 1.5 mL), sodium citrate (660 mM, 18.0 mL), T-CEP (1 mM, 0.06 mL), EDTA (0.1 mM, 0.06 mL), CHAPS (0.05%, 0.15 mL), DMSO (2%, 0.6 mL), and MILLI-Q® H2O (10.23 mL; 9.63 mL when backfilled to 2% DMSO) followed by thorough mixing.
MALT-1 was thawed and kept on ice. Peptide substrate was thawed on the bench under ambient conditions. A MALT-1 enzyme working stock was prepared from Avi-tagged FL MALT-1 (40 nM in a prepared reagent volume of […]) and the reaction buffer (13.0 mL). MALT1 working stock (5 μL) was added to each well of the microplate. MALT-1 was pre-incubated with compounds for 30 minutes at room temperature.
Two substrate working stocks (Km and 10×Km) were prepared. The 1×Km substrate was prepared from Ac-LRSR-AMC Peptide (50 μM in a prepared reagent volume of […]) and the reaction buffer (6.965 mL). The 10×Km substrate was prepared from Ac-LRSR-AMC Peptide ([…] in a prepared reagent volume of 196.0 μL) and the reaction buffer (6.804 mL). The reaction was initiated by the addition of substrate working stock (5 μL, 50 μM) to Km plates and the addition of substrate working stock (5 μL 280 μM) to 10×Km plates. The plates were covered and incubated on the bench at room temperature for 90 minutes.
Fluorescence intensity was determined using a CLARIOstar microplate reader (BMG LABTECH) using the optimised AMC mode. Before taking readings, a 70% gain was applied on the neutral control well. Compound data were normalised to % Inhibition and used to plot sigmoidal concentration response curves to yield various parameters including IC50.

pIC50: −log10 of the molar value. Some results are limits rather than exact numbers.

By pIC50 is commonly meant −log10 of the IC50, conventionally taken in molar units. The low end stands for a high IC50, the high end for a low IC50. As to `Cn1cc(-c2nsc(C(=O)Nc3cnc(-n4nccn4)c(C#N)c3)c2C(F)(F)F)cn1` [I-37, N-(5-CYANO-6-(2H-1,2,3-TRIAZOL-2-YL)PYRIDIN-3-YL)-3-(1-METHYL-1H-PYRAZOL-4-YL)-4-(TRIFLUORO-METHYL)ISOTHIAZOLE-5-CARBOXAMIDE], the negative-log IC50 (pIC50) is 6.00 to 6.40.
The result for `CN(C)C(=O)c1ncc(NC(=O)c2snc(-c3ccccc3)c2C2CC2)cc1Cl` [I-50, N-(5-CHLORO-6-(DIMETHYLCARBAMOYL) PYRIDIN-3-YL)-4-CYCLOPROPYL-3-PHENYLISOTHIAZOLE-5-CARBOXAMIDE] reads at least 6.40.
The result for `O=C(Nc1ccnc(C(F)(F)F)c1)c1snc(-c2cncc(F)c2)c1C1CC1` [I-146, 4-cyclopropyl-3-(5-fluoropyridin-3-yl)-N-[2-(trifluoromethyl)pyridine-4-yl]-1,2-thiazole-5-carboxamide] reads at least 6.40; that for `O=C(Nc1ccnc(C(F)(F)F)c1)c1snc(-c2cccc(C(F)(F)F)c2)c1C1CC1` [I-138, 4-cyclopropyl-3-(3-(trifluoromethyl)phenyl)-N-(2-(trifluoromethyl)pyridin-4-yl)isothiazole-5-carboxamide], at least 6.40.
The same measure for `O=C(Nc1ccnc(C(F)(F)F)c1)c1snc(-c2cccc(C(F)F)c2)c1C1CC1` [I-174, 4-cyclopropyl-3-[3-(difluoromethyl)phenyl]-N-[2-(trifluoromethyl)pyridin-4-yl]-1,2-thiazole-5-carboxamide]: at least 6.40.
With `O=C(Nc1ccnc(C(F)(F)F)c1)c1snc(-c2c(Cl)cncc2Cl)c1C1CC1` [I-187, 4-cyclopropyl-3-(3,5-dichloropyridin-4-yl)-N-(2-(trifluoromethyl)pyridin-4-yl)isothiazole-5-carboxamide], the pIC50 was at least 6.40.
In the case of `O=C(Nc1cncc(Cl)c1)c1snc(-c2ccccc2)c1C1CC1` [I-42, N-(5-CHLOROPYRIDIN-3-YL)-4-CYCLOPROPYL-3-PHENYLISOTHIAZOLE-5-CARBOXAMIDE], the pIC50 was at least 6.40.
Turning to `N#Cc1cc(NC(=O)c2snc(C3CCOC3)c2C2CC2)cnc1-n1nccn1` (centres unmarked) [I-115], the pIC50 is at least 6.40.
For `O=C(Nc1ccnc(C(F)(F)F)c1)c1snc(-c2cccc(Cl)c2)c1C1CC1` [I-139, 3-(3-chlorophenyl)-4-cyclopropyl-N-(2-(trifluoromethyl)pyridin-4-yl)isothiazole-5-carboxamide], the pIC50 is at least 6.40.
The same measure for `N#Cc1cc(NC(=O)c2snc(O)c2C2CC2)cnc1-n1nccn1` [I-52, N-(5-CYANO-6-(2H-1,2,3-TRIAZOL-2-YL) PYRIDIN-3-YL)-4-CYCLOPROPYL-3-HYDROXYISOTHIAZOLE-5-CARBOXAMIDE]: under 5.60; for `Cn1ncc2c(-c3nsc(C(=O)Nc4ccnc(C(F)(F)F)c4)c3C3CC3)cccc21` [I-152, 4-cyclopropyl-3-(1-methyl-1H-indazol-4-yl)-N-(2-(trifluoromethyl)pyridin-4-yl)isothiazole-5-carboxamide]: at least 6.40; for `Cn1cc(-c2nsc(C(=O)Nc3cnc(-n4nccn4)c(C#N)c3)c2C(F)(F)F)ccc1=O` [I-36, N-(5-CYANO-6-(2H-1,2,3-TRIAZOL-2-YL)PYRIDIN-3-YL)-3-(1-METHYL-6-OXO-1,6-DIHYDROPYRIDIN-3-YL)-4-(TRIFLUORO-METHYL)ISOTHIAZOLE-5-CARBOXAMIDE]: at least 6.40.
The same measure for `N#Cc1cc(NC(=O)c2snc(-c3ccccc3)c2C2CC2)cnc1-n1nccn1` [I-9, N-(5-CYANO-6-(2H-1,2,3-TRIAZOL-2-YL) PYRIDIN-3-YL)-4-CYCLOPROPYL-3-PHENYLISOTHIAZOLE-5-CARBOXAMIDE]: at least 6.40; for `C=Cc1c(-c2ccccc2)nsc1C(=O)Nc1cnc(-n2nccn2)c(Cl)c1` [I-10, N-(5-CHLORO-6-(2H-1,2,3-TRIAZOL-2-YL) PYRIDIN-3-YL)-4-VINYL-3-PHENYLISOTHIAZOLE-5-CARBOXAMIDE]: at least 6.40.
The result for `CN(C(=O)c1snc(-c2ccccc2)c1C(F)(F)F)c1cnc(-n2nccn2)c(Cl)c1` [I-18, N-(5-CHLORO-6-(2H-1,2,3-TRIAZOL-2-YL) PYRIDIN-3-YL)-N-METHYL-3-PHENYL-4-(TRIFLUOROMETHYL)ISOTHIAZOLE-5-CARBOXAMIDE] reads at least 6.40.
Turning to `N#Cc1cc(NC(=O)c2snc(-c3ccccc3)c2C2CC2)cnc1N1CCOCC1` [I-53, N-(5-CYANO-6-MORPHOLINOPYRIDIN-3-YL)-4-CYCLOPROPYL-3-PHENYLISOTHIAZOLE-5-CARBOXAMIDE], the negative-log IC50 (pIC50) is at least 6.40.
Compound `O=C(Nc1ccnc(C(F)(F)F)c1)c1snc(-c2cnccc2F)c1C1CC1` [I-192, 4-cyclopropyl-3-(4-fluoropyridin-3-yl)-N-(2-(trifluoromethyl)pyridin-4-yl)isothiazole-5-carboxamide] showed a pIC50 of at least 6.40.
For the compound `O=C(Nc1ccnc(C(F)(F)F)c1)c1snc(-c2ccc3cncn3c2)c1C1CC1` [I-194, 4-cyclopropyl-3-(imidazo[1,5-a]pyridin-6-yl)-N-(2-(trifluoromethyl)pyridin-4-yl)isothiazole-5-carboxamide], the pIC50 is at least 6.40.
The same measure for `CN1CC=C(c2nsc(C(=O)Nc3cnc(-n4nccn4)c(C#N)c3)c2C2CC2)CC1` [I-134, N-(5-cyano-6-(2H-1,2,3-triazol-2-yl)pyridin-3-yl)-4-cyclopropyl-3-(1-methyl-1,2,3,6-tetrahydropyridin-4-yl)isothiazole-5-carboxamide]: under 5.60.
The same measure for `O=C(Nc1cnc(C(=O)N2CC(O)C2)c(Cl)c1)c1snc(-c2cccn3nccc23)c1C1CC1` [I-212, N-(5-chloro-6-(3-hydroxyazetidine-1-carbonyl)pyridin-3-yl)-4-cyclopropyl-3-(pyrazolo[1,5-a]pyridin-4-yl)isothiazole-5-carboxamide]: at least 6.40; for `CN(C)c1nsc(C(=O)Nc2cnc(-n3nccn3)c(C#N)c2)c1C(F)(F)F` [I-102]: at least 6.40.
The result for `CN(C)c1ncc(NC(=O)c2snc(-c3ccccc3)c2C2CC2)cc1C#N` [I-29, N-(5-CYANO-6-(DIMETHYLAMINO)PYRIDIN-3-YL)-4-CYCLOPROPYL-3-PHENYLISOTHIAZOLE-5-CARBOXAMIDE] reads at least 6.40; that for `CC(C)c1c(-c2ccccc2)nsc1C(=O)Nc1cnc(-n2nccn2)c(Cl)c1` [I-5, N-(5-CHLORO-6-(2H-1,2,3-TRIAZOL-2-YL) PYRIDIN-3-YL)-4-ISOPROPYL-3-PHENYLISOTHIAZOLE-5-CARBOXAMIDE], at least 6.40.
